{"source": "patent US11932897B2", "about": "“Biosynthesis of curcuminoids in mammalian cells” (University of Kentucky Research Foundation, priority 2018, dated 2024)", "key": {"[1]": {"settings": "cited from earlier work"}, "[2]": {"settings": "in vivo; cited from earlier work"}, "[3]": {"system": "radiation-induced oral mucositis", "test": "Syrian hamster model of radiation-induced oral mucositis", "settings": "sustained presence of curcumin from in vivo biosynthesis, versus irradiated hamsters without treatment or with positive control; 60 Gy", "from_the_text": "Briefly, the hamster is anesthetized, the left cheek pouch is clamped between acrylic sheets to hold it in place, and each cheek pouch is exposed to 60 Gy total irradiation in a linear accelerator (LINAC). The use of the LINAC system provides gamma radiation exposure, is clinically relevant, and provides tight control of the radiation dose, reducing animal-to-animal exposure differences. For up to three weeks after irradiation, the hamsters is weighed daily and cheeks extracted to evaluate injury based on a well-established, validated scale (Table 2).\nEqual numbers of male and female hamsters are randomly divided into groups (n=8). Negative controls comprise non-irradiated, non-treated; nonirradiated, treated; and irradiated, nontreated groups. […] The treatment groups are determined based on the curcuminoid production levels, bioavailability, and duration of production achievable in the in vivo systems described above. A preferred treatment is animals stably producing curcuminoids following AAV8-mediated transfection of liver and providing therapeutically relevant curcuminoid concentrations in circulation. The primary alternative is local AAV-mediated transfection of tissues in the cheek pouch. Another alternative approach is HEK293-ddCCM or HEK-CCM cells encapsulated in lysine/alginate spheres and implanted s.c. or i.p. in tissue cages."}, "[4]": {"system": "reactive oxygen species (ROS) within cells", "test": "CellROX Deep Red assay of cellular oxidative stress after H2O2 treatment", "assay_type": "cell-based", "settings": "for effect on CellROX fluorescence / oxidation (in words): 1 mM H2O2 for 30 min, then CellROX Deep Red, transfected cells in substrate-supplemented media, or supplemented media alone", "experimental": "Cells were exposed to 1 mM H2O2 for 30 min before incubation with CellROX Deep Red. Blank: untransfected cells. F: ferulic acid-supplemented media. P: p-courmaric acid-supplemented media. pGL3: luciferase-encoding plasmid.\nAdditionally, the antioxidant potential of heterologously produced curcuminoids was investigated using CellROX Deep Red (Invitrogen, Carlsbad, Calif.), a fluorogenic probe for cellular oxidative stress. The cell-permeable CellROX dye is non-fluorescent in its reduced state but becomes highly fluorescent upon oxidation by reactive oxygen species (ROS) within cells. Cells were treated with 1 mM H2O2 to induce oxidative stress and subsequently incubated with CellROX before quantifying the resulting fluorescence (FIG. 11)."}}}
{"smiles": "COc1cc(/C=C/C(=O)CC(=O)/C=C/c2ccc(O)c(OC)c2)ccc1O", "note": "[CCM, curcumin]", "values": [{"measurement": "half-life in plasma", "setting": "[1]", "value": "relatively short"}, {"measurement": "oral bioavailability", "setting": "[2]", "value": "~1", "unit": "%"}, {"measurement": "severity and duration of OM", "setting": "[3]", "value": "significantly reduces severity and duration of OM"}, {"measurement": "reduction in CellROX fluorescence", "setting": "[4]; cells producing CCM from ferulic acid (4CL1/DCS/CURS1), 1 mM H2O2 for 30 min before CellROX Deep Red", "value": 37, "unit": "%"}]}
{"smiles": "COc1cc(/C=C/C(=O)O)ccc1O", "note": "[ferulic acid]", "values": [{"measurement": "effect on CellROX fluorescence / oxidation (in words)", "setting": "[4]", "value": "Neither the presence of p-coumaric acid nor ferulic acid, nor transfection with pGL3 (encoding luciferase), had any effect"}]}
{"smiles": "O=C(O)/C=C/c1ccc(O)cc1", "note": "[p-coumaric acid]", "values": [{"measurement": "effect on CellROX fluorescence / oxidation (in words)", "setting": "[4]", "value": "Neither the presence of p-coumaric acid nor ferulic acid, nor transfection with pGL3 (encoding luciferase), had any effect"}]}
